In patent US20230398102A1 (Bausch Health Ireland Limited, priority 2020, published 2023):

How the values were obtained:
Format in all cases: physicochemical
[1] = Compatibility of individual excipients with hard gelatin capsule shells; settings: Hard Gel Capsules
Description: (§1) The physical compatibility of individual excipients with gelatin shell matrix was investigated. For hard gelatin capsules, solvent was filled into hard capsules and placed in scintillation vials. For soft gelatin capsules, each capsule was dipped into the excipient and then placed in scintillation vials. The vials were then subjected to various temperature conditions for up to 4 weeks. Capsules were then evaluated for physical changes (softening or hardening of capsule shell).
(§2) Hard gel capsules were purchased from VWR (catalogue number 70102) with a volume of 0.68 mL, diameter of 6.63 mm, a length of 19.0 mm and size 1. Soft gel capsules were Advil liquid-gels, 200 mg strength, 80 counts.

[2] = Excipient compatibility: rifaximin solutions stored at various temperatures, chemical purity by HPLC; settings: rifaximin in named solvent
[3] = Compatibility of individual excipients with soft gelatin capsule shells; settings: Soft Gel Capsules
Description: as §1, §2

| Structure (SMILES) | Physical change (Yes or No) ([1]; T 2 weeks, 25° C.) | Physical change (Yes or No) ([1]; T 2 weeks, 40° C.) | Physical change (Yes or No) ([1]; T 4 weeks, 25° C.) | Physical change (Yes or No) ([1]; T 4 weeks, 40° C.) | Rifaximin % Label Claim (LC) ([2]; T0) | Rifaximin % Label Claim (LC) ([2]; T 2 weeks, 25° C.) | Rifaximin % Label Claim (LC) ([2]; T 2 weeks, 40° C.) | Rifaximin % Label Claim (LC) ([2]; T 2 weeks, 50° C.) | Rifaximin % Label Claim (LC) ([2]; T 4 weeks, 25° C.) | Rifaximin % Label Claim (LC) ([2]; T 4 weeks, 40° C.) | Rifaximin % Label Claim (LC) ([2]; T 4 weeks, 50° C.) | Physical change (Yes or No) ([3]; T 2 weeks, 25° C.) | Physical change (Yes or No) ([3]; T 2 weeks, 40° C.) | Physical change (Yes or No) ([3]; T 2 weeks, 50° C.) | Physical change (Yes or No) ([3]; T 4 weeks, 25° C.) | Physical change (Yes or No) ([3]; T 4 weeks, 40° C.) | Physical change (Yes or No) ([3]; T 4 weeks, 50° C.) | Physical change (Yes or No) ([1]; T 2 weeks, 50° C.) | Physical change (Yes or No) ([1]; T 4 weeks, 50° C.) |
| --- | --- | --- | --- | --- | --- | --- | --- | --- | --- | --- | --- | --- | --- | --- | --- | --- | --- | --- | --- |
| CCCCCCCC/C=C\CCCCCCCCO [Oleyl alcohol] | No | No | No | No | 98.7 % Label Claim (LC) | 96.3 % Label Claim (LC) | 97.1 % Label Claim (LC) | 95.2 % Label Claim (LC) | 96.9 % Label Claim (LC) | 95.0 % Label Claim (LC) | 91.8 % Label Claim (LC) | – | – | – | – | – | – | – | – |
| OCc1ccccc1 [Benzyl alcohol] | Yes | Yes | Yes | Yes | 99.3 % Label Claim (LC) | 99.8 % Label Claim (LC) | 96.3 % Label Claim (LC) | 96.9 % Label Claim (LC) | 98.2 % Label Claim (LC) | 94.0 % Label Claim (LC) | 93.0 % Label Claim (LC) | – | – | – | – | – | – | – | – |
| CCOCCOCCO [diethylene glycol monoethyl ether] | – | – | – | – | 97.3 % Label Claim (LC) | 96.1 % Label Claim (LC) | 89.3 % Label Claim (LC) | 81.5 % Label Claim (LC) | 95.4 % Label Claim (LC) | 82.7 % Label Claim (LC) | 74.2 % Label Claim (LC) | – | – | – | – | – | – | – | – |
| CCOC(=O)CCCCCCCCC(=O)OCC [Diethyl sebacate] | No | No | No | No | 102.7 % Label Claim (LC) | 102.1 % Label Claim (LC) | 101.7 % Label Claim (LC) | 101.7 % Label Claim (LC) | 101.1 % Label Claim (LC) | 98.8 % Label Claim (LC) | 99.8 % Label Claim (LC) | – | – | – | – | – | – | – | – |
| CCCCC/C=C\C/C=C\CCCCCCCC(=O)OCC(O)CO (stereo not shown) [Glyceryl monolinoleate] | No | No | No | No | 102.7 % Label Claim (LC) | 98.7 % Label Claim (LC) | 100.0 % Label Claim (LC) | 97.4 % Label Claim (LC) | 100.6 % Label Claim (LC) | 100.0 % Label Claim (LC) | 92.9 % Label Claim (LC) | No | No | No | No | No | No | No | No |
| CC(O)CO (stereo not shown) [Propylene glycol] | – | – | – | – | 97.9 % Label Claim (LC) | 96.9 % Label Claim (LC) | 97.0 % Label Claim (LC) | 95.7 % Label Claim (LC) | 96.2 % Label Claim (LC) | 95.6 % Label Claim (LC) | 98.6 % Label Claim (LC) | – | – | – | – | – | – | – | – |
| CC(C)OC(=O)CCCCC(=O)OC(C)C [Diisopropyl adipate] | – | – | – | – | 97.6 % Label Claim (LC) | 95.3 % Label Claim (LC) | 71.3 % Label Claim (LC) | 50.3 % Label Claim (LC) | 95.1 % Label Claim (LC) | 64.8 % Label Claim (LC) | 30.4 % Label Claim (LC) | – | – | – | – | – | – | – | – |
| CCCCCCCC/C=C\CCCCCCCC(=O)OCC(O)CO (stereo not shown) [Glyceryl monooleate (Type 40), Glyceryl monooleate] | No | No | No | No | 92.7 % Label Claim (LC) | 96.4 % Label Claim (LC) | 58.3 % Label Claim (LC) | 48.9 % Label Claim (LC) | 95.0 % Label Claim (LC) | 59.0 % Label Claim (LC) | 41.7 % Label Claim (LC) | No | Yes | Yes | No | Yes | Yes | No | No |
| OCCOCCOCCO [Triethylene glycol] | Yes | Yes | Yes | Yes | 97.5 % Label Claim (LC) | 98.3 % Label Claim (LC) | 96.7 % Label Claim (LC) | 95.6 % Label Claim (LC) | 97.0 % Label Claim (LC) | 95.0 % Label Claim (LC) | 92.5 % Label Claim (LC) | – | – | – | – | – | – | – | – |
| CCOCCOCCO [Diethylene glycol monoethyl ether] | No | No | No | No | – | – | – | – | – | – | – | – | – | – | – | – | – | No | No |
